# Values joined by “and” are separate entries in the source; they are usually repeats but may differ in a detail not shown here. Identical values can stand only once.
# How the values were obtained:
# [1] = in vivo; conditions: sheep
# Method: (§1) The chitosan concentration was 0.5%. The solution was administered into the sheep nostril using a simple spray pump device followed by serial blood sampling. […] Control experiments were conducted using i.v. dosage of the glucuronide.
# (§2) Blood samples (10 ml) were taken at the following times.
# Plasma was separated by centrifugation soon after sampling and the plasma samples (approximately 5 ml) were stored at -80° C. prior to analysis.
# Biomed. Appl. 230, 427. […] The limit of quantification of the method is 1 ng/ml for a 0.5 ml plasma sample and the assay is linear over the range of 1 to 1200 ng/ml drug concentration.
# [2] = Pharmacokinetic parameters after intravenous administration to sheep; conditions: for Vd: Apparent Volume of Distibution; for AUC at 5 h: Area Under Curve; for half-life: T1/2, i.v. 0.015 mg/kg
# Method: as §1, §2
# (§3) The area under the curve (AUC) was calculated over 0-300 minutes using the linear trapezoidal method. […] Clearance was calculated by dividing the dose by the AUC, and the volume of distribution was calculated by dividing the clearance by the elimination rate constant. The bioavailability was calculated by dividing the mean AUC for nasal administration by the normalised mean AUC after intravenous administration.
# [3] = Pharmacokinetic parameters after nasal administration to sheep; conditions: for Vd: Apparent Volume of Distribution; for AUC at 5 h: Area Under Curve; for half-life: T1/2, nasal 0.15 mg/kg with 0.5% chitosan
# Method: as §1, §2, §3
# [4] = cited from earlier work; for unwanted side effects: metabolites compared with morphine, for morphine: therapeutic use
# [5] = intracerebroventricular, mice; cited from earlier work
# [6] = subcutaneous injection, rat; cited from earlier work
# [7] = 0.15 mg/kg, morphine-6-glucuronide concentration (plasma)
# [8] = iv, 0.015 mg/kg, morphine-6-glucuronide concentration (plasma)
# [9] = i.v. 0.015 mg/kg, individual sheep NF, OF, PF
# [10] = nasal 0.15 mg/kg with 0.5% chitosan, individual sheep IF, JF, KF, 0.15 mg/kg
smiles,measurement,setting,value
CN1CC[C@]23c4c5ccc(O)c4O[C@H]2[C@@H](O[C@@H]2O[C@H](C(=O)O)[C@@H](O)[C@H](O)[C@H]2O)C=C[C@H]3[C@H]1C5 [morphine-6-glucuronide],concentration at 10 min,[1]; [7],89.1 ng/mL
same,concentration at 0.25 h,[1]; [7],121 ng/mL
same,concentration at 20 min,[1]; [7],102 ng/mL
same,concentration at 0.5 h,[1]; [7],107 ng/mL
same,concentration at 0.75 h,[1]; [7],108 ng/mL
same,concentration at 1 h,[1]; [7],66.7 ng/mL
same,concentration at 1.5 h,[1]; [7],41.1 ng/mL
same,concentration at 2 h,[1]; [7],21.9 ng/mL
same,concentration at 3 h,[1]; [7],10.2 ng/mL
same,concentration at 6 h,[1]; [7],< 1 ng/mL
same,morphine-6-glucuronide concentration (plasma),"[1]; iv, 0.015 mg/kg, 2.5 h",3.5 ng/mL
same,concentration at 2 min,[1]; [8],43.8 ng/mL
same,concentration at 5 min,[1]; [8],40.3 ng/mL
same,concentration at 10 min,[1]; [8],36.1 ng/mL
same,concentration at 0.25 h,[1]; [8],28.6 ng/mL
same,concentration at 20 min,[1]; [8],23.2 ng/mL
same,concentration at 0.5 h,[1]; [8],22.5 ng/mL
same,concentration at 1.5 h,[1]; [8],9.4 ng/mL
same,concentration at 3 h,[1]; [8],2 ng/mL
same,concentration at 4 h,[1]; [8],< 1 ng/mL
same,concentration at 5 h,[1]; [8],< 1 ng/mL
same,concentration at 6 h,[1]; [8],< 1 ng/mL
same,Area Under Curve,"[2]; i.v. 0.015 mg/kg, 0-300 min, individual sheep NF, OF, PF, 300 min",3819 ng·min/mL and 2560 ng·min/mL
same,Apparent Volume of Distibution,[2]; [9],0.30 lkg^-1 and 0.35 lkg^-1
same,Cmax,[2]; [9],55 ng/mL and 50 ng/mL
same,T1/2,[2]; [9],53 min and 42 min
same,Tmax,[2]; [9],2 min and 5 min
same,clearance,[2]; [9],3.9 mL/min/kg and 5.9 mL/min/kg
same,Vd,"[2]; sheep, plasma, iv, 0.015 mg/kg, i.v. 0.015 mg/kg, individual sheep NF, OF, PF",0.58 L/kg
same,Vd,"[2]; sheep, plasma, iv, 0.015 mg/kg, i.v. 0.015 mg/kg, mean of 3 sheep",0.41 L/kg
same,AUC at 5 h,"[2]; sheep, plasma, iv, 0.015 mg/kg, i.v. 0.015 mg/kg, 0-300 min, individual sheep NF, OF, PF",36.1 ng·h/mL
same,AUC at 5 h,"[2]; sheep, plasma, iv, 0.015 mg/kg, i.v. 0.015 mg/kg, 0-300 min, mean of 3 sheep",47.5 ng·h/mL
same,clearance,"[2]; sheep, plasma, iv, 0.015 mg/kg, Clearance, i.v. 0.015 mg/kg, individual sheep NF, OF, PF",6.9 mL/min/kg
same,clearance,"[2]; sheep, plasma, iv, 0.015 mg/kg, Clearance, i.v. 0.015 mg/kg, mean of 3 sheep",5.6 mL/min/kg
same,Cmax,"[2]; sheep, plasma, iv, 0.015 mg/kg, Cmax, i.v. 0.015 mg/kg, individual sheep NF, OF, PF",44 ng/mL
same,Cmax,"[2]; sheep, plasma, iv, 0.015 mg/kg, Cmax, i.v. 0.015 mg/kg, mean of 3 sheep",50 ng/mL
same,half-life,"[2]; sheep, plasma, iv, 0.015 mg/kg, individual sheep NF, OF, PF",58 min
same,half-life,"[2]; sheep, plasma, iv, 0.015 mg/kg, mean of 3 sheep",51 min
same,Tmax,"[2]; sheep, plasma, iv, 0.015 mg/kg, Tmax, i.v. 0.015 mg/kg, mean of 3 sheep",3 min
same,bioavailability,"[3]; nasal 0.15 mg/kg with 0.5% chitosan, vs normalised mean i.v. AUC, individual sheep IF, JF, KF, 0.15 mg/kg",37.3% and 26.6%
same,Area Under Curve,"[3]; nasal 0.15 mg/kg with 0.5% chitosan, 0-300 min, individual sheep IF, JF, KF, 0.15 mg/kg, 300 min",10631 ng·min/mL and 7581 ng·min/mL
same,Apparent Volume of Distribution,"[3]; nasal 0.15 mg/kg with 0.5% chitosan, corrected for bioavailable dose, individual sheep IF, JF, KF, 0.15 mg/kg",0.31 lkg^-1
same,clearance,"[3]; nasal 0.15 mg/kg with 0.5% chitosan, corrected for bioavailable dose, mean of 3 sheep",5.3 mL/min/kg
same,Cmax,[3]; [10],165 ng/mL and 110 ng/mL
same,T1/2,[3]; [10],41 min and 42 min
same,Tmax,[3]; [10],10 min
same,clearance,"[3]; sheep, plasma, 0.15 mg/kg",5.3 mL/min/kg
same,Vd,"[3]; sheep, plasma, 0.15 mg/kg, nasal 0.15 mg/kg with 0.5% chitosan, corrected for bioavailable dose, individual sheep IF, JF, KF",0.37 L/kg
same,Vd,"[3]; sheep, plasma, 0.15 mg/kg, nasal 0.15 mg/kg with 0.5% chitosan, corrected for bioavailable dose, mean of 3 sheep",0.33 L/kg
same,AUC at 5 h,"[3]; sheep, plasma, 0.15 mg/kg, nasal 0.15 mg/kg with 0.5% chitosan, 0-300 min, individual sheep IF, JF, KF",156 ng·h/mL
same,AUC at 5 h,"[3]; sheep, plasma, 0.15 mg/kg, nasal 0.15 mg/kg with 0.5% chitosan, 0-300 min, mean of 3 sheep",153 ng·h/mL
same,bioavailability,"[3]; sheep, plasma, 0.15 mg/kg, Bioavailability, nasal 0.15 mg/kg with 0.5% chitosan, vs normalised mean i.v. AUC, individual sheep IF, JF, KF",32.9%
same,Cmax,"[3]; sheep, plasma, 0.15 mg/kg, Cmax, nasal 0.15 mg/kg with 0.5% chitosan, individual sheep IF, JF, KF",121 ng/mL
same,Cmax,"[3]; sheep, plasma, 0.15 mg/kg, Cmax, nasal 0.15 mg/kg with 0.5% chitosan, mean of 3 sheep",132 ng/mL
same,half-life,"[3]; sheep, plasma, 0.15 mg/kg, individual sheep IF, JF, KF",51 min
same,half-life,"[3]; sheep, plasma, 0.15 mg/kg, mean of 3 sheep",45 min
same,Tmax,"[3]; sheep, plasma, 0.15 mg/kg, Tmax, nasal 0.15 mg/kg with 0.5% chitosan, individual sheep IF, JF, KF",15 min
same,Tmax,"[3]; sheep, plasma, 0.15 mg/kg, Tmax, nasal 0.15 mg/kg with 0.5% chitosan, mean of 3 sheep",13 min
same,bioavailability,"[3]; sheep, plasma, 0.15 mg/kg, mean nasal bioavailability, nasal 0.15 mg/kg with 0.5% chitosan, vs i.v. AUC normalised to 0.15 mg/kg, mean, n=3",32.3%
same,biological half-life compared with morphine,[4],may also have a longer biological half-life
same,unwanted side effects,[4],less likely to have the unwanted side effects
CN1CC[C@]23c4c5ccc(O)c4O[C@H]2[C@@H](OS(=O)(=O)O)C=C[C@H]3[C@H]1C5 [morphine-6-sulphate],analgesic potency compared with morphine,[5],more potent analgesic than morphine
same,antinociceptive activity,[6],potent antinociceptive activity
same,unwanted side effects,[4],less likely to have the unwanted side effects

# Reference: patent US5629011A, “Composition for nasal administration” (priority 1992, dated 1997)
